Reference: publication PMC8947439, “Antimicrobial Properties of a Peptide Derived from the Male Fertility Factor kl2 Protein of Drosophila melanogaster” (Current Issues in Molecular Biology, 2022)
Residues, ends and D or L forms follow the SMILES beside them.

Key:
E. coli HB101 [1] = type: cell-based, Escherichia coli; settings: HB101, 2 h
Procedure: (§1) Bacteria were grown in brain heart infusion (BHI) medium broth at 37 °C. For the microdilution assay (MDA) and minimal inhibitory concentration (MIC) assay, bacteria in the mid-logarithmic phase were harvested and diluted to 4 × 10^5 CFU/mL with Dulbecco’s PBS. Bacteria were incubated with a series of 2-fold dilutions of indicated peptides or PBS for 2 h. The number of viable bacteria were enumerated by counting the colony-forming units (CFU). The MIC was defined as the lowest antimicrobial concentration which prevents the visible growth of bacteria.

B. subtilis ATCC 9372 = type: cell-based, Bacillus subtilis
Procedure: as §1

E. coli HB101 [2] = experiment: microdilution assay (MDA), viable counts (CFU); type: cell-based, Escherichia coli; settings: peptide 100 μM, 2 h, 4 × 10^5 CFU/mL in Dulbecco's PBS, CFU counting, N = 3
Procedure: as §1

S. aureus 8325-4 = experiment: microdilution assay (MDA), viable counts (CFU); type: cell-based, Staphylococcus aureus; settings: peptide 100 μM, 2 h, 4 × 10^5 CFU/mL in Dulbecco's PBS, CFU counting, N = 3
Procedure: as §1

| Compound | MIC (E. coli HB101 [1]) [µM] | percent of killing (B. subtilis ATCC 9372; ATCC 9372, 2 h, 100 μM) | antimicrobial activity, inhibition of viable counts (E. coli HB101 [2]) | antimicrobial activity, inhibition of viable counts (B. subtilis ATCC 9372; peptide 100 μM, 2 h, 4 × 10^5 CFU/mL in Dulbecco's PBS, CFU counting, N = 3) | antimicrobial activity, inhibition of viable counts (S. aureus 8325-4) |
| --- | --- | --- | --- | --- | --- |
| CC[C@H](C)[C@H](NC(=O)[C@H](CC(C)C)NC(=O)[C@H](C)NC(=O)[C@H](CCCNC(=N)N)NC(=O)[C@H](Cc1ccccc1)NC(=O)[C@H](CC(C)C)NC(=O)[C@H](CCCCN)NC(=O)[C@@H](N)CCCNC(=N)N)C(=O)N[C@@H](CCC(N)=O)C(=O)N[C@@H](C)C(=O)N[C@@H](CS)C(=O)N[C@@H](CC(=O)O)C(=O)N[C@@H](CCCNC(=N)N)C(=O)N[C@@H](CCCCN)C(=O)O [MFF-p1] (H-RKLFRALIQACDRK-OH) | 6 to 12.5 | around 90% | – | – | – |
| LKDVFRDFIVVCQK [Z-p1, peptide that is a part of the Zizimin protein of Drosophila melanogaster] | – | – | did not demonstrate antimicrobial activity | did not demonstrate antimicrobial activity | did not demonstrate antimicrobial activity |
